Values after ≈ are worked out from the molar mass of the structure shown.
Experiments:
Experiment in all cases: MIC and MBC testing, broth microdilution
E. faecium ATCC 35667 = assay type: cell-based, Enterococcus faecium; conditions: Enterococcus faecium, ATCC35667, E. faecium ATCC 35667; for MIC: 18 h, read-out: MIC; for MBC: read-out: MBC
From the text: (§1) The minimum inhibitory concentrations (MICs) and minimum bactericidal concentrations (MBCs) of the synthesized compounds effective against ESKAPE strains, S. aureus clinical isolates, and MRSA were investigated by the broth dilution method. Levofloxacin is a broad-spectrum antibacterial agent that is widely used in the treatment of ESKAPE infections. Therefore, levofloxacin was selected as the positive control for the preliminary activity screening. DMSO (0.1%) was selected as the negative control.
(§2) The minimum inhibitory concentration (MIC) of all synthesized compounds was tested by the broth microdilution method. In brief, compounds dissolved in DMSO were diluted twice continuously in a 96-well plate with MH broth. The ESKAPE pathogens (E. coli ATCC 25922, S. aureus ATCC 29213, K. pneumoniae ATCC 700603, A. baumannii ATCC 19606, P. aeruginosa ATCC 27853, and E. faecium ATCC 35667), clinical S. aureus isolates (LMY45, LMY46, LMY47, and LMY48) and methicillin-resistant Staphylococcus aureus (MRSA-1 and MRSA-2) were cultured in MH broth to logarithmic growth phase and then diluted to 1 × 10^6 CFU/mL in MH broth. Subsequently, the diluted bacterial solution was mixed with the diluted compound solution in a 96-well plate and incubated at 37 °C for a duration of 18 h. The MIC of the compounds was recorded as the lowest concentration at which no visible growth was observed. […] Each concentration was replicated thrice.

[1] = tested on: K. pneumoniae ATCC 700603; assay type: cell-based, Klebsiella pneumoniae; conditions: Klebsiella pneumoniae; for MIC: ATCC700603, 18 h, read-out: MIC; for MBC: ATCC700603, read-out: MBC
From the text: as §1, §2

A. baumannii ATCC 19606 = assay type: cell-based, Acinetobacter baumannii; conditions: Acinetobacter baumannii; for MIC: ATCC19606, 18 h, read-out: MIC; for MBC: ATCC19606, read-out: MBC
From the text: as §1, §2

E. coli ATCC 25922 = assay type: cell-based, Escherichia coli; conditions: Escherichia coli; for MIC: ATCC25922, 18 h, read-out: MIC; for MBC: ATCC25922, read-out: MBC
From the text: as §1, §2

S. aureus ATCC 29213 = assay type: cell-based, Staphylococcus aureus; conditions: Staphylococcus aureus, ATCC29213, S. aureus ATCC 29213; for MIC: 18 h, read-out: MIC; for MBC: read-out: MBC
From the text: as §1, §2

P. aeruginosa ATCC 27853 = assay type: cell-based, Pseudomonas aeruginosa; conditions: Pseudomonas aeruginosa; for MIC: ATCC27853, 18 h, read-out: MIC
From the text: as §1, §2

[2] = tested on: clinical S. aureus isolate LMY47; assay type: cell-based, Staphylococcus aureus; conditions: Staphylococcus aureus, LMY47; for MIC: 18 h, read-out: MIC; for MBC: read-out: MBC
Method: (§3) Furthermore, the MBC values of the compounds were detected.
as §2, with “h.” for “h. The MIC of the compounds was recorded as the lowest concentration at which no visible growth was observed.”

[3] = tested on: clinical S. aureus isolate LMY45; assay type: cell-based, Staphylococcus aureus; conditions: Staphylococcus aureus, LMY45; for MIC: 18 h, read-out: MIC; for MBC: read-out: MBC
Method: as §3
as §2, with “h.” for “h. The MIC of the compounds was recorded as the lowest concentration at which no visible growth was observed.”

[4] = tested on: clinical S. aureus isolate LMY46; assay type: cell-based, Staphylococcus aureus; conditions: Staphylococcus aureus, LMY46; for MIC: 18 h, read-out: MIC; for MBC: read-out: MBC
Method: as §3
as §2, with “h.” for “h. The MIC of the compounds was recorded as the lowest concentration at which no visible growth was observed.”

MRSA-1 = assay type: cell-based, Staphylococcus aureus; conditions: Staphylococcus aureus, MRSA-1; for MIC: 18 h, read-out: MIC; for MBC: read-out: MBC
Method: as §3
as §2, with “h.” for “h. The MIC of the compounds was recorded as the lowest concentration at which no visible growth was observed.”

MRSA-2 = assay type: cell-based, Staphylococcus aureus; conditions: Staphylococcus aureus, MRSA-2; for MIC: 18 h, read-out: MIC; for MBC: read-out: MBC
Method: as §3
as §2, with “h.” for “h. The MIC of the compounds was recorded as the lowest concentration at which no visible growth was observed.”

[5] = tested on: clinical S. aureus isolate LMY48; assay type: cell-based, Staphylococcus aureus; conditions: Staphylococcus aureus, LMY48; for MIC: 18 h, read-out: MIC; for MBC: read-out: MBC
Method: as §3
as §2, with “h.” for “h. The MIC of the compounds was recorded as the lowest concentration at which no visible growth was observed.”

| Structure (SMILES) | MIC (E. faecium ATCC 35667) [µg/mL] | MBC (E. faecium ATCC 35667) [µg/mL] | MIC [1] [µg/mL] | MIC (A. baumannii ATCC 19606) [µg/mL] | MBC (A. baumannii ATCC 19606) [µg/mL] | MIC (E. coli ATCC 25922) [µg/mL] | MBC (E. coli ATCC 25922) [µg/mL] | MIC (S. aureus ATCC 29213) [µg/mL] | MIC (P. aeruginosa ATCC 27853) [µg/mL] | MIC [2] [µg/mL] | MBC [2] [µg/mL] | MIC [3] [µg/mL] | MBC [3] [µg/mL] | MIC [4] [µg/mL] | MBC [4] [µg/mL] | MIC (MRSA-1) [µg/mL] | MIC (MRSA-2) [µg/mL] | MBC (MRSA-2) [µg/mL] | MIC [5] [µg/mL] | MBC [5] [µg/mL] | also measured |
| --- | --- | --- | --- | --- | --- | --- | --- | --- | --- | --- | --- | --- | --- | --- | --- | --- | --- | --- | --- | --- | --- |
| [H]/N=C(\N)NN=C1CCCc2cc(OCc3ccc(C(F)(F)F)cc3)ccc21 [Compound 1J, (E)-2-(6-((4-(trifluoromethyl)benzyl)oxy)-3,4-dihydronaphthalen-1(2H)-ylidene)hydrazine-1-carboximidamide] | 2 (≈ 5.31 µM) | 4 (≈ 10.6 µM) | 16 (≈ 42.5 µM) | 8 (≈ 21.3 µM) | 8 (≈ 21.3 µM) | 4 (≈ 10.6 µM) | 4 (≈ 10.6 µM) | 2 (≈ 5.31 µM) | 16 (≈ 42.5 µM) | 2 (≈ 5.31 µM) | 4 (≈ 10.6 µM) | 2 (≈ 5.31 µM) | 2 (≈ 5.31 µM) | 2 (≈ 5.31 µM) | 16 (≈ 42.5 µM) | 1 (≈ 2.66 µM) | 2 (≈ 5.31 µM) | 32 (≈ 85 µM) | 2 (≈ 5.31 µM) | 2 (≈ 5.31 µM) | MBC [1]: 32 µg/mL (≈ 85 µM); MBC (S. aureus ATCC 29213): 16 µg/mL (≈ 42.5 µM); MBC (P. aeruginosa ATCC 27853; ATCC27853, read-out: MBC): > 32 µg/mL; MBC (MRSA-1): 8 µg/mL (≈ 21.3 µM) |
| [H]/N=C(\N)NN=C1CCCc2cc(OCc3cc(C(F)(F)F)cc(C(F)(F)F)c3)ccc21 [Compound 1K, (E)-2-(6-((3,5-bis(trifluoromethyl)benzyl)oxy)-3,4-dihydronaphthalen-1(2H)-ylidene)hydrazine-1-carboximidamide] | 4 (≈ 9 µM) | 16 (≈ 36 µM) | > 32 | > 32 |  | > 32 |  | 32 (≈ 72 µM) | > 32 | 4 (≈ 9 µM) | 8 (≈ 18 µM) | 4 (≈ 9 µM) | 16 (≈ 36 µM) | 4 (≈ 9 µM) | > 32 | 16 (≈ 36 µM) | 8 (≈ 18 µM) | 32 (≈ 72 µM) | 4 (≈ 9 µM) | 8 (≈ 18 µM) |  |
| [H]/N=C(\N)NN=C1CCCc2cc(OCc3ccccc3Br)ccc21 [Compound 1Q, (E)-2-(6-((2-bromobenzyl)oxy)-3,4-dihydronaphthalen-1(2H)-ylidene)hydrazine-1-carboximidamide] | 2 (≈ 5.16 µM) | 8 (≈ 20.7 µM) | 32 (≈ 82.6 µM) | 8 (≈ 20.7 µM) | 8 (≈ 20.7 µM) | 4 (≈ 10.3 µM) | 4 (≈ 10.3 µM) | 4 (≈ 10.3 µM) | > 32 | ≤ 1 | 4 (≈ 10.3 µM) | 2 (≈ 5.16 µM) | 4 (≈ 10.3 µM) | 2 (≈ 5.16 µM) | 4 (≈ 10.3 µM) | 1 (≈ 2.58 µM) | 2 (≈ 5.16 µM) | 8 (≈ 20.7 µM) | 2 (≈ 5.16 µM) | 2 (≈ 5.16 µM) | MBC [1]: 32 µg/mL (≈ 82.6 µM); MBC (S. aureus ATCC 29213): 8 µg/mL (≈ 20.7 µM); MBC (MRSA-1): 8 µg/mL (≈ 20.7 µM) |
| [H]/N=C(\N)NN=C1CCCc2cc(OCc3cccc(Br)c3)ccc21 [Compound 1R, (E)-2-(6-((3-bromobenzyl)oxy)-3,4-dihydronaphthalen-1(2H)-ylidene)hydrazine-1-carboximidamide] | 2 (≈ 5.16 µM) | 8 (≈ 20.7 µM) | 8 (≈ 20.7 µM) | 4 (≈ 10.3 µM) | 4 (≈ 10.3 µM) | 8 (≈ 20.7 µM) | 8 (≈ 20.7 µM) | 2 (≈ 5.16 µM) | > 32 | 2 (≈ 5.16 µM) | 8 (≈ 20.7 µM) | 2 (≈ 5.16 µM) | 4 (≈ 10.3 µM) | 2 (≈ 5.16 µM) | 4 (≈ 10.3 µM) | 2 (≈ 5.16 µM) | 2 (≈ 5.16 µM) | 4 (≈ 10.3 µM) | 2 (≈ 5.16 µM) | 16 (≈ 41.3 µM) | MBC [1]: 8 µg/mL (≈ 20.7 µM); MBC (S. aureus ATCC 29213): 16 µg/mL (≈ 41.3 µM); MBC (MRSA-1): 16 µg/mL (≈ 41.3 µM) |
| [H]/N=C(\N)NN=C1CCCc2cc(OCc3ccc(F)cc3Cl)ccc21 [Compound 1T, (E)-2-(6-((2-chloro-4-fluorobenzyl)oxy)-3,4-dihydronaphthalen-1(2H)-ylidene)hydrazine-1-carboximidamide] | 2 (≈ 5.54 µM) | 16 (≈ 44.3 µM) | > 32 | 16 (≈ 44.3 µM) | 32 (≈ 88.7 µM) | 8 (≈ 22.2 µM) | > 32 | 2 (≈ 5.54 µM) | > 32 | 1 (≈ 2.77 µM) | 4 (≈ 11.1 µM) | 1 (≈ 2.77 µM) | 4 (≈ 11.1 µM) | 1 (≈ 2.77 µM) | 4 (≈ 11.1 µM) | 1 (≈ 2.77 µM) | 2 (≈ 5.54 µM) | 8 (≈ 22.2 µM) | 4 (≈ 11.1 µM) | 4 (≈ 11.1 µM) | MBC (S. aureus ATCC 29213): 32 µg/mL (≈ 88.7 µM); MBC (MRSA-1): 8 µg/mL (≈ 22.2 µM) |
| [H]/N=C(\N)NN=C1CCCc2cc(OCc3ccc(C#N)cc3)ccc21 [Compound 1V, (E)-2-(6-((4-cyanobenzyl)oxy)-3,4-dihydronaphthalen-1(2H)-ylidene)hydrazine-1-carboximidamide] | 16 (≈ 48 µM) | > 32 | 32 (≈ 96 µM) | 16 (≈ 48 µM) | 32 (≈ 96 µM) | 16 (≈ 48 µM) | 32 (≈ 96 µM) | 8 (≈ 24 µM) | > 32 | 8 (≈ 24 µM) | 32 (≈ 96 µM) | 4 (≈ 12 µM) | 8 (≈ 24 µM) | 4 (≈ 12 µM) | 32 (≈ 96 µM) | 8 (≈ 24 µM) | 8 (≈ 24 µM) | 8 (≈ 24 µM) | 8 (≈ 24 µM) | 8 (≈ 24 µM) | MBC (S. aureus ATCC 29213): 32 µg/mL (≈ 96 µM); MBC (MRSA-1): 16 µg/mL (≈ 48 µM) |

From publication PMC12250302, “Synthesis, Antimicrobial Activities, and Model of Action of Novel Tetralone Derivatives Containing Aminoguanidinium Moiety” (International Journal of Molecular Sciences, 2025)
